Experimental data taken from patent publication US12317891B2, “Protein product capable of immobilizing target and being cleared as required” (SHAANXI NORMAL UNIVERSITY, priority 2020, dated 2025).

System: snails
Assay: Insect control performance verification: cabbage leaves fed to snails
Type: in vivo
Settings: leaves sprayed with 10 mg/mL suspension; 10 snails per group
Text: Cabbage leaves each at a size of 5 cm×5 cm were divided into four groups with four cabbage leaves in each group. […] The four groups of leaves were respectively administered to four groups of snails with 10 snails in each group. The consumption rate by the snails for the untreated cabbage leaf group was almost 100%. The consumption rate by the snails for the cabbage leaves simply sprayed with the imidacloprid suspension was about 30%. […] The consumption rate by the snails for the cabbage leaves that were first sprayed with the suspension of the protein product of the present disclosure and then treated with the Vc aqueous solution or the fruit and vegetable detergent was increased to 80%.

O=[N+]([O-])NC1=NCCN1Cc1ccc(Cl)nc1 [imidacloprid]
consumption rate of cabbage leaves by the snails: about 30%
